Test results: patent US9095594B2, “Pharmaceutical compositions comprising beta-lactam antibiotic, sulbactam and beta-lactamase inhibitor” (Wockhardt Ltd., priority 2011, dated 2015)
Converted amounts (≈) assume the structure as drawn. Where two headings read alike, the source gives them in different places. Blank lines part the entries; values can stand above or below the molecule they belong to.

What was measured:
[1] = system: A. baumanii 13305 (ESBL strain); experiment: Agar dilution MIC (CLSI); format: cell-based; conditions: A. baumanii 13305; for MIC: Acinetobacter baumannii
Description: (§1) In a typical study, overnight grown bacterial cultures were diluted appropriately and inoculated on the agar media containing doubling dilutions of the antibiotic. Observation for growth or no growth was performed after 16-20 hours of incubation at 35±2° C. in ambient air.

[2] = system: A. baumanii S-10 (ESBL strain); experiment: Agar dilution MIC (CLSI); format: cell-based; conditions: A. baumanii S-10; for MIC: Acinetobacter baumannii
Description: as §1

[3] = system: A. baumanii S-3 (ESBL strain); experiment: Agar dilution MIC (CLSI); format: cell-based; conditions: A. baumanii S-3; for MIC: Acinetobacter baumannii
Description: as §1

[4] = system: A. baumanii S-8 (ESBL strain); experiment: Agar dilution MIC (CLSI); format: cell-based; conditions: A. baumanii S-8; for MIC: Acinetobacter baumannii
Description: as §1

[5] = system: A. baumanii 13304 (ESBL strain); experiment: Agar dilution MIC (CLSI); format: cell-based; conditions: A. baumanii 13304; for MIC: Acinetobacter baumannii
Description: as §1

[6] = system: A. baumanii S-4 (ESBL strain); experiment: Agar dilution MIC (CLSI); format: cell-based; conditions: A. baumanii S-4
Description: as §1

[7] = system: A. baumanii S-15 (ESBL strain); experiment: Agar dilution MIC (CLSI); format: cell-based; conditions: A. baumanii S-15
Description: as §1

[8] = system: A. baumanii 13301 (ESBL strain); experiment: Agar dilution MIC (CLSI); format: cell-based; conditions: A. baumanii 13301; for MIC: Acinetobacter baumannii
Description: as §1

ESBL strains = experiment: Agar dilution MIC (CLSI), text summary over the strains; format: cell-based, A. baumanii
Description: as §1

[9] = NXL-104 4 mcg/ml + Sulbactam 8 mcg/ml
[10] = NXL-104 6 mcg/ml + Sulbactam 6 mcg/ml
[11] = NXL-104 8 mcg/ml + Sulbactam 4 mcg/ml
[12] = NXL-104 4 to 8 mcg/ml, read-out: MIC of beta-lactam in presence of NXL-104 (4 to 8 mcg/ml)
[13] = NXL-104 4 mcg/ml + Sulbactam 4 mcg/ml

MIC of beta-lactam with NXL-104 (4 mcg/ml) + Sulbactam (4 mcg/ml) [1]: <0.06 µg/mL | MIC of beta-lactam with NXL-104 (4 mcg/ml) + Sulbactam (8 mcg/ml) [1]: <0.06 µg/mL | MIC of beta-lactam with NXL-104 (6 mcg/ml) + Sulbactam (6 mcg/ml) [1]: <0.06 µg/mL | MIC of beta-lactam with NXL-104 (8 mcg/ml) + Sulbactam (4 mcg/ml) [1]: <0.06 µg/mL | MIC of beta-lactam in presence of Sulbactam (4 to 8 mcg/ml) [1]: 4 µg/mL | MIC of beta-lactam with NXL-104 (4 mcg/ml) + Sulbactam (8 mcg/ml) [2]: 8 µg/mL | MIC of beta-lactam with NXL-104 (6 mcg/ml) + Sulbactam (6 mcg/ml) [2]: <0.03 µg/mL | MIC of beta-lactam with NXL-104 (8 mcg/ml) + Sulbactam (4 mcg/ml) [2]: <0.03 µg/mL | MIC of beta-lactam with NXL-104 (4 mcg/ml) + Sulbactam (8 mcg/ml) [3]: 4 µg/mL | MIC of beta-lactam with NXL-104 (6 mcg/ml) + Sulbactam (6 mcg/ml) [3]: 1 µg/mL | MIC of beta-lactam with NXL-104 (8 mcg/ml) + Sulbactam (4 mcg/ml) [3]: 0.5 µg/mL | MIC of beta-lactam with NXL-104 (4 mcg/ml) + Sulbactam (8 mcg/ml) [4]: 8 µg/mL | MIC of beta-lactam with NXL-104 (6 mcg/ml) + Sulbactam (6 mcg/ml) [4]: 0.5 µg/mL | MIC of beta-lactam with NXL-104 (8 mcg/ml) + Sulbactam (4 mcg/ml) [4]: 0.5 µg/mL | MIC of beta-lactam with NXL-104 (4 mcg/ml) + Sulbactam (4 mcg/ml) [5]: <0.06 µg/mL | MIC of beta-lactam with NXL-104 (4 mcg/ml) + Sulbactam (8 mcg/ml) [5]: <0.06 µg/mL | MIC of beta-lactam with NXL-104 (6 mcg/ml) + Sulbactam (6 mcg/ml) [5]: <0.06 µg/mL | MIC of beta-lactam with NXL-104 (8 mcg/ml) + Sulbactam (4 mcg/ml) [5]: <0.06 µg/mL | MIC of beta-lactam with NXL-104 (4 mcg/ml) + Sulbactam (8 mcg/ml) [6, 9]: 4 µg/mL | MIC of beta-lactam with NXL-104 (6 mcg/ml) + Sulbactam (6 mcg/ml) [6, 10]: 1 µg/mL | MIC of beta-lactam with NXL-104 (8 mcg/ml) + Sulbactam (4 mcg/ml) [6, 11]: 0.5 µg/mL | MIC of beta-lactam with NXL-104 (4 mcg/ml) + Sulbactam (8 mcg/ml) [7, 9]: 8 µg/mL | MIC of beta-lactam with NXL-104 (6 mcg/ml) + Sulbactam (6 mcg/ml) [7, 10]: 0.12 µg/mL | MIC of beta-lactam with NXL-104 (8 mcg/ml) + Sulbactam (4 mcg/ml) [7, 11]: 0.5 µg/mL | MIC of beta-lactam with NXL-104 (4 mcg/ml) + Sulbactam (4 mcg/ml) [8]: <0.06 µg/mL | MIC of beta-lactam with NXL-104 (4 mcg/ml) + Sulbactam (8 mcg/ml) [8]: <0.06 µg/mL | MIC of beta-lactam with NXL-104 (6 mcg/ml) + Sulbactam (6 mcg/ml) [8]: <0.06 µg/mL | MIC of beta-lactam with NXL-104 (8 mcg/ml) + Sulbactam (4 mcg/ml) [8]: <0.06 µg/mL
SMILES: CO/N=C(\C(=O)N[C@@H]1C(=O)N2C(C(=O)[O-])=C(C[N+]3(C)CCCC3)CS[C@H]12)c1csc(N)n1 [Cefepime, cefepime]

MIC of beta-lactam with NXL-104 (4 mcg/ml) + Sulbactam (4 mcg/ml) [1]: <0.06 µg/mL | MIC of beta-lactam with NXL-104 (4 mcg/ml) + Sulbactam (8 mcg/ml) [1]: <0.06 µg/mL | MIC of beta-lactam with NXL-104 (6 mcg/ml) + Sulbactam (6 mcg/ml) [1]: <0.06 µg/mL | MIC of beta-lactam with NXL-104 (8 mcg/ml) + Sulbactam (4 mcg/ml) [1]: <0.06 µg/mL | MIC of beta-lactam in presence of Sulbactam (4 to 8 mcg/ml) [1]: 8 µg/mL | MIC [1, 12]: 16 µg/mL | MIC ([1]; alone, read-out: MIC): 16 µg/mL (≈ 31.1 µM) | MIC of beta-lactam with NXL-104 (4 mcg/ml) + Sulbactam (4 mcg/ml) [2, 13]: 16 µg/mL | MIC of beta-lactam with NXL-104 (4 mcg/ml) + Sulbactam (8 mcg/ml) [2]: 8 µg/mL | MIC of beta-lactam with NXL-104 (6 mcg/ml) + Sulbactam (6 mcg/ml) [2]: <0.03 µg/mL | MIC of beta-lactam with NXL-104 (8 mcg/ml) + Sulbactam (4 mcg/ml) [2]: <0.03 µg/mL | MIC of beta-lactam in presence of Sulbactam (4 to 8 mcg/ml) ([2]; Sulbactam 4 to 8 mcg/ml): >32 µg/mL | MIC [2, 12]: 16 µg/mL | MIC ([2]; alone, read-out: MIC): > 32 µg/mL | MIC of beta-lactam with NXL-104 (4 mcg/ml) + Sulbactam (4 mcg/ml) [3, 13]: 16 µg/mL | MIC of beta-lactam with NXL-104 (4 mcg/ml) + Sulbactam (8 mcg/ml) [3]: 4 µg/mL | MIC of beta-lactam with NXL-104 (6 mcg/ml) + Sulbactam (6 mcg/ml) [3]: 1 µg/mL | MIC of beta-lactam with NXL-104 (8 mcg/ml) + Sulbactam (4 mcg/ml) [3]: 0.5 µg/mL | MIC of beta-lactam in presence of Sulbactam (4 to 8 mcg/ml) ([3]; Sulbactam 4 to 8 mcg/ml): >32 µg/mL | MIC [3, 12]: 32 µg/mL | MIC ([3]; alone, read-out: MIC): > 32 µg/mL | MIC of beta-lactam with NXL-104 (4 mcg/ml) + Sulbactam (4 mcg/ml) [4, 13]: 16 µg/mL | MIC of beta-lactam with NXL-104 (4 mcg/ml) + Sulbactam (8 mcg/ml) [4]: 8 µg/mL | MIC of beta-lactam with NXL-104 (6 mcg/ml) + Sulbactam (6 mcg/ml) [4]: 0.5 µg/mL | MIC of beta-lactam with NXL-104 (8 mcg/ml) + Sulbactam (4 mcg/ml) [4]: 0.5 µg/mL | MIC of beta-lactam in presence of Sulbactam (4 to 8 mcg/ml) ([4]; Sulbactam 4 to 8 mcg/ml): 32 µg/mL | MIC [4, 12]: 16 µg/mL | MIC ([4]; alone, read-out: MIC): 32 µg/mL (≈ 62.2 µM) | MIC of beta-lactam with NXL-104 (4 mcg/ml) + Sulbactam (4 mcg/ml) [5]: <0.06 µg/mL | MIC of beta-lactam with NXL-104 (4 mcg/ml) + Sulbactam (8 mcg/ml) [5]: <0.06 µg/mL | MIC of beta-lactam with NXL-104 (6 mcg/ml) + Sulbactam (6 mcg/ml) [5]: <0.06 µg/mL | MIC of beta-lactam with NXL-104 (8 mcg/ml) + Sulbactam (4 mcg/ml) [5]: <0.06 µg/mL | MIC of beta-lactam in presence of Sulbactam (4 to 8 mcg/ml) ([5]; Sulbactam 4 to 8 mcg/ml): 32 µg/mL | MIC [5, 12]: 16 µg/mL | MIC ([5]; alone, read-out: MIC): 32 µg/mL (≈ 62.2 µM) | MIC of beta-lactam with NXL-104 (4 mcg/ml) + Sulbactam (4 mcg/ml) [8]: <0.06 µg/mL | MIC of beta-lactam with NXL-104 (4 mcg/ml) + Sulbactam (8 mcg/ml) [8]: <0.06 µg/mL | MIC of beta-lactam with NXL-104 (6 mcg/ml) + Sulbactam (6 mcg/ml) [8]: <0.06 µg/mL | MIC of beta-lactam with NXL-104 (8 mcg/ml) + Sulbactam (4 mcg/ml) [8]: <0.06 µg/mL | MIC of beta-lactam in presence of Sulbactam (4 to 8 mcg/ml) ([8]; Sulbactam 4 to 8 mcg/ml): >32 µg/mL | MIC [8, 12]: > 32 µg/mL | MIC ([8]; alone, read-out: MIC): > 32 µg/mL | MIC in presence of sulbactam and NXL-104, lowest value ("as low as") (ESBL strains): less than 0.03 mcg/ml
SMILES: CO/N=C(\C(=O)N[C@@H]1C(=O)N2C(C(=O)[O-])=C(C[n+]3cccc4c3CCC4)CS[C@H]12)c1csc(N)n1 [Cefpirome, cefpirome]
